The values below come from patent US7776893B2, “Use of PDE4 inhibitors for the treatment of diabetes mellitus” (NYCOMED GmbH, priority 2003, dated 2010).

Holding throughout (assay type): in vivo
The subject of data set [1] is C57BLKS db/db mice. In words: 10 days study: oral glucose tolerance, blood glucose 15 minutes after glucose application. Particulars: fasted 24 h, 15 minutes after 1 g/kg oral glucose. How it is done: (§1) Female C57BLKS db/db mice obtained from M&B A/S (8680 Ry, Denmark) were used In the studies at 10 to 11 weeks of age. Mice were housed 10 per cage and allowed free access to water and chow (chow 3433, Provimi Kliba SA, 4303 Kaiseraugst, Switzerland).
(§2) Mice were allowed to acclimate to the local animal facilities for 1 week and retro-orbital blood samples were obtained 3 to 7 days prior to the start of the study.
(§3) Mice were treated with vehicle or a selected PDE4 inhibitor compound once daily in the morning. The selective PDE4 inhibitor compounds to be tested were suspended in 4% methocel and applied via oral gavage using oral feeding & dosing needles (outer diameter: 1.5 mm, TSE GmbH, 61350 Bad Homburg, Germany). A volume of 10 ml/kg body weight was administered for each dose.
10 days studies: Mice were treated with vehicle or a selected PDE4 inhibitor compound once daily in the morning. On day 9, mice were fasted for 24 hours by removing chow 1 hour after drug application. On day 10, glucose tolerance was assessed by oral application of 1 g/kg/10 ml glucose. Blood was sampled 15 minutes after glucose application and levels of glucose (accu-chek, Roche Diagnostics GmbH, 68298 Mannheim, Germany) were measured.

The test system of data set [2] is C57BLKS db/db mice. The data set can be described thus: 56 days study: fasting blood glucose and oral glucose tolerance. The following applies: for Blood glucose 15 min after glucose application: 1 g/kg oral glucose; for Blood glucose fasting: fasted 24 h. Here is the method:
as §1, §2, §3
(§4) 56 days studies: Mice were treated with vehicle or a selected PDE4 inhibitor compound once daily in the morning. On day 55, mice were fasted for 24 hours by removing chow 1 hour after drug application. On day 56, fasting blood glucose levels were measured and glucose tolerance was assessed by oral application of 1 g/kg/10 ml glucose. Blood was sampled 15 minutes after glucose application and levels of glucose (accu-chek, Roche Diagnostics GmbH, 68298 Mannheim, Germany) and lactate (lactate reagent, Sigma-Aldrich GmbH, 82039 Deisenhofen, Germany) were measured.

Data set [3] has as its system C57BLKS db/db mice. The data set can be described thus: 56 days study: lactate levels, fasting and after glucose application. The following applies: for Lactate 15 min after glucose application: 1 g/kg oral glucose; for Lactate fasting: serum, fasted 24 h. How it is done: as §1, §2, §3, §4

`CCn1nnc(-c2ccc(C3=N[C@H]4CCCC[C@H]4c4cc(OC)c(OC)cc43)cc2)n1` [COMPOUND D, (−)-cis-6-[4-(2-Ethyl-2H-tetrazol-5-yl)-phenyl]-8,9-dimethoxy-1,2,3,4,4a,10b-hexahydrophenanthridine]: the values for the Blood glucose in data set [1] (3 mg/kg oral once daily) and in data set [1] (30 mg/kg oral once daily) were 437 mg/dL and 285 mg/dL, respectively.

As to `COc1cc2c(cc1OC)[C@@H]1CCCC[C@@H]1N=C2c1ccc(C(=O)c2ccccc2)cc1` [COMPOUND B, (−)-cis-8,9-Dimethoxy-6-(4-benzoylphenyl)-1,2,3,4,4a,10b-hexahydrophenanthridine], the Blood glucose in data set [1] (3 mg/kg oral once daily) worked out at 362 mg/dL; in data set [1] (30 mg/kg oral once daily), 251 mg/dL.

On to `COc1cc2c(cc1OC)[C@@H]1CCCC[C@@H]1N=C2c1ccc(C(=O)O)cc1.Cl` [COMPOUND C, (+)-cis-8,9-Dimethoxy-6-(4-carboxyphenyl)-1,2,3,4,4a,10b-hexahydrophenanthridine Hydrochloride], for which the Blood glucose in data set [1] (3 mg/kg oral once daily) was found to be 506 mg/dL; in data set [1] (30 mg/kg oral once daily), 449 mg/dL.

Take `COc1cc2c(cc1OC)[C@@H]1CCCC[C@@H]1N=C2c1ccc(OCC2CC2)c(OCC2CC2)c1` [COMPOUND A, (−)-cis-8,9-Dimethoxy-6-[3,4-bis-(cyclopropylmethoxy)phenyl]-1,2,3,4,4a,10b-hexahydrophenanthridine]: the figures for the Blood glucose in data set [1] (3 mg/kg oral once daily) and in data set [1] (30 mg/kg oral once daily) were 507 mg/dL and 411.5 mg/dL, respectively. The “Blood glucose 15 min after glucose application” value is 580 mg/dL in data set [2] (3 mg/kg oral once daily) and 352 mg/dL in data set [2] (30 mg/kg oral once daily). Further, the Blood glucose fasting amounted to 279 mg/dL in data set [2] (3 mg/kg oral once daily) and 193 mg/dL in data set [2] (30 mg/kg oral once daily). For the same compound, the “Lactate 15 min after glucose application” value was found to be 70 mg/dL in data set [3] (3 mg/kg oral once daily) and 61 mg/dL in data set [3] (30 mg/kg oral once daily). Besides, the Lactate fasting in data set [3] (3 mg/kg oral once daily) came out at 49 mg/dL; in data set [3] (30 mg/kg oral once daily), 43 mg/dL.
